Laboratory results taken from PubChem BioAssay (NCI).
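Growth conditions: 96-well plates. Treatment: test compound, 48 hours, 5 concentrations. Analysis: linear interpolation between bracketing concentrations; unreached endpoints set to highest concentration. The concentration for 50% growth inhibition is given as GI50. At the TGI there is no net growth.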

How the values were obtained:
Assay in all cases: DTP human tumour cell line panel, 48 h
[1] = system: NCI/ADR-RES ovarian
[2] = system: NCI-H23 lung
[3] = system: UACC-62 melanoma
[4] = system: SW-620 colon
[5] = system: UO-31 renal
[6] = system: SF-539 CNS
[7] = system: OVCAR-8 ovarian
[8] = system: SK-OV-3 ovarian
[9] = system: TK-10 renal
[10] = system: RXF 393 renal
[11] = system: SK-MEL-28 melanoma
[12] = system: SR leukemia
[13] = system: MALME-3M melanoma
[14] = system: CAKI-1 renal
[15] = system: SF-295 CNS
[16] = system: CCRF-CEM leukemia
[17] = system: SNB-19 CNS
[18] = system: NCI-H460 lung
[19] = system: HCT-116 colon
[20] = system: DU-145 prostate
[21] = system: HCC-2998 colon
[22] = system: IGROV1 ovarian
[23] = system: ACHN renal
[24] = system: HCT-15 colon
[25] = system: UACC-257 melanoma
[26] = system: MDA-MB-231 breast
[27] = system: 786-0 renal
[28] = system: OVCAR-4 ovarian
[29] = system: K-562 leukemia
[30] = system: HL-60(TB) leukemia
[31] = system: MCF7 breast
[32] = system: HS 578T breast
[33] = system: T-47D breast
[34] = system: NCI-H522 lung
[35] = system: PC-3 prostate
[36] = system: SK-MEL-2 melanoma
[37] = system: M14 melanoma
[38] = system: NCI-H226 lung
[39] = system: OVCAR-3 ovarian
[40] = system: A498 renal
[41] = system: OVCAR-5 ovarian
[42] = system: COLO 205 colon
[43] = system: HT29 colon
[44] = system: RPMI-8226 leukemia
[45] = system: U251 CNS
[46] = system: A549 NSCLC
[47] = system: SNB-75 CNS
[48] = system: BT-549 breast
[49] = system: HOP-92 NSCLC
[50] = system: MOLT-4 leukemia
[51] = system: SK-MEL-5 melanoma
[52] = system: SF-268 CNS
[53] = system: LOX IMVI melanoma
[54] = system: HOP-62 NSCLC
[55] = system: KM12 colon
[56] = system: MDA-MB-435

COc1cccc2c1O/C(=C\c1ncc([N+](=O)[O-])n1C)C2=O
GI50 [1]: 277 nM
TGI [1]: 2900 nM
GI50 [2]: 270 nM
TGI [2]: 1310 nM
GI50 [3]: 569 nM
TGI [3]: 1670 nM
GI50 [4]: 74.7 nM
TGI [4]: 1700 nM
GI50 [5]: 173 nM
TGI [5]: 622 nM
GI50 [6]: 1320 nM
TGI [6]: 3510 nM
GI50 [7]: 167 nM
GI50 [8]: 911 nM
TGI [8]: 4210 nM
GI50 [9]: 870 nM
GI50 [10]: 229 nM
TGI [10]: 648 nM
GI50 [11]: 239 nM
TGI [11]: 607 nM
GI50 [12]: < 16.5 nM
TGI [12]: 165 nM
GI50 [13]: 224 nM
TGI [13]: 563 nM
GI50 [14]: 200 nM
TGI [14]: 579 nM
GI50 [15]: 1270 nM
TGI [15]: 4490 nM
GI50 [16]: 53.7 nM
TGI [16]: 384 nM
GI50 [17]: 1300 nM
TGI [17]: 5750 nM
GI50 [18]: 203 nM
TGI [18]: 603 nM
GI50 [19]: 82.5 nM
TGI [19]: 691 nM
GI50 [20]: 266 nM
TGI [20]: 809 nM
GI50 [21]: 1860 nM
TGI [21]: 7570 nM
GI50 [22]: 303 nM
TGI [22]: 2460 nM
GI50 [23]: 82.6 nM
TGI [23]: 332 nM
GI50 [24]: 128 nM
TGI [24]: 404 nM
GI50 [25]: 531 nM
TGI [25]: 4990 nM
GI50 [26]: 310 nM
TGI [26]: 1570 nM
GI50 [27]: 375 nM
TGI [27]: 3890 nM
GI50 [28]: 1920 nM
TGI [28]: 6230 nM
GI50 [29]: 422 nM
TGI [29]: 6220 nM
GI50 [30]: 234 nM
TGI [30]: 1350 nM
GI50 [31]: 467 nM
TGI [31]: 5040 nM
GI50 [32]: 1040 nM
TGI [32]: > 21000 nM
GI50 [33]: 8250 nM
TGI [33]: 52900 nM
GI50 [34]: 187 nM
TGI [34]: 474 nM
GI50 [35]: 662 nM
GI50 [36]: 242 nM
TGI [36]: 607 nM
GI50 [37]: 218 nM
TGI [37]: 719 nM
GI50 [38]: 1470 nM
TGI [38]: 4810 nM
GI50 [39]: 236 nM
TGI [39]: 632 nM
GI50 [40]: 1390 nM
TGI [40]: 3420 nM
GI50 [41]: 1700 nM
TGI [41]: 5820 nM
GI50 [42]: 254 nM
TGI [42]: 1100 nM
GI50 [43]: 154 nM
TGI [43]: 599 nM
GI50 [44]: 949 nM
TGI [44]: 4110 nM
GI50 [45]: 745 nM
TGI [45]: 3190 nM
GI50 [46]: 509 nM
TGI [46]: 3450 nM
GI50 [47]: 1390 nM
TGI [47]: 3970 nM
GI50 [48]: 413 nM
TGI [48]: 2650 nM
GI50 [49]: 343 nM
TGI [49]: 1680 nM
GI50 [50]: 68.9 nM
TGI [50]: 1360 nM
GI50 [51]: 186 nM
TGI [51]: 502 nM
GI50 [52]: 221 nM
TGI [52]: 816 nM
GI50 [53]: 116 nM
TGI [53]: 414 nM
GI50 [54]: 716 nM
TGI [54]: 2250 nM
GI50 [55]: 348 nM
TGI [55]: 1550 nM
GI50 [56]: 133 nM
TGI [56]: 290 nM
